Calls of active or inactive are those of the source. No rule for the calls is given here.
System: GENE-TOX genotoxicity assays, various organisms and cells
Experiment: GENE-TOX mutagenicity studies
Details: for call: Assay Type: In vivo carcinogenicity studies
[1] = Species/Cell Type: Chinese hamster ovary (CHO) cells, Assay Type: Forward gene mutation at the HPRT locus, Assay Code: CHO+, Evaluation Type: Evaluation B (Post-1980)
[2] = Species/Cell Type: Human lymphocytes, Assay Type: Sister-chromatid exchange (SCE) in vitro, Assay Code: SCL+, Evaluation Type: Evaluation B (Post-1980)
[3] = Species/Cell Type: Mouse (C3H/10T1/2) cells, Assay Type: Cell transformation, Assay Code: CTH+, Evaluation Type: Evaluation A (Pre-1980)
[4] = Species/Cell Type: Nonhuman, Assay Code: CCGT, Evaluation Type: Evaluation A (Pre-1980)
[5] = Species/Cell Type: Nonhuman, Assay Type: Sister-chromatid exchange (SCE) in vitro, Assay Code: SC2+D, Dose Response: With dose response, Evaluation Type: Evaluation A (Pre-1980)
[6] = Species/Cell Type: Nonhuman, Assay Type: Sister-chromatid exchange (SCE) in vitro, Assay Code: SC2+D, Dose Response: With dose response, Evaluation Type: Evaluation B (Post-1980)
[7] = Species/Cell Type: Nonhuman, Assay Type: Sister-chromatid exchange (SCE) in vivo, Assay Code: SC3+D, Dose Response: With dose response, Evaluation Type: Evaluation B (Post-1980)
[8] = Species/Cell Type: Nonhuman, Assay Code: CCG+L, Evaluation Type: Evaluation A (Pre-1980)
[9] = Species/Cell Type: Human lymphocytes, Assay Type: Sister-chromatid exchange (SCE) in vitro, Assay Code: SCLT, Evaluation Type: Evaluation B (Post-1980)
[10] = Species/Cell Type: Human, Assay Type: Sister-chromatid exchange (SCE) in vitro, Assay Code: SC1T, Evaluation Type: Evaluation B (Post-1980)
[11] = Species/Cell Type: Escherichia coli polA (W3110 vs P3478), Assay Type: Rec-assay, DNA effects (bacterial DNA repair), Assay Code: RE2-, Evaluation Type: Evaluation A (Pre-1980)
[12] = Species/Cell Type: Fischer rat embryo (RLV/1706) cells, Assay Type: Cell transformation, viral enhanced, Assay Code: CTR+, Evaluation Type: Evaluation A (Pre-1980)
[13] = Species/Cell Type: Human, Assay Type: Sister-chromatid exchange (SCE) in vitro, Assay Code: SC1+, Evaluation Type: Evaluation B (Post-1980)
[14] = Species/Cell Type: Mouse, Sex: Male, Assay Type: Sperm morphology, Assay Code: SPI-, Evaluation Type: Evaluation A (Pre-1980)
[15] = Species/Cell Type: Saccharomyces cerevisiae, Assay Type: Mitotic recombination or gene conversion, Assay Code: YEH-, Evaluation Type: Evaluation A (Pre-1980)
[16] = Species/Cell Type: Salmonella typhimurium (one or more of the five standard strains: TA98, TA100, TA1535, TA1537, and TA1538), Assay Type: Histidine reverse gene mutation, Ames assay, Assay Code: SAL-, Evaluation Type: Evaluation A (Pre-1980)

In the case of `Cc1c(N)nc([C@H](CC(N)=O)NC[C@H](N)C(N)=O)nc1C(=O)N[C@H](C(=O)N[C@H](C)[C@@H](O)[C@H](C)C(=O)N[C@H](C(=O)NCCc1nc(-c2nc(C(=O)NCCC[S+](C)C)cs2)cs1)[C@@H](C)O)[C@@H](OC1OC(CO)C(O)C(O)C1OC1OC(CO)C(O)C(OC(N)=O)C1O)c1cnc[nH]1` (stereo partly specified), the mutagenic call [1] is reported as “active; positive”, the mutagenic call (Species/Cell Type: Human bone marrow, Assay Type: Chromosome aberrations in vivo, Assay Code: CY5+, Evaluation Type: Evaluation A (Pre-1980)) is reported as “active; positive” and the mutagenic call (Species/Cell Type: Human cell culture, Assay Type: Chromosome aberrations in vitro, Assay Code: CYZ+, Evaluation Type: Evaluation A (Pre-1980)) is reported as “active; positive”. For the same compound, the mutagenic call (Species/Cell Type: Human lymphocytes or leukocytes, Assay Type: Chromosome aberrations in vitro, Assay Code: CY7+D, Dose Response: With dose response, Evaluation Type: Evaluation A (Pre-1980)) was “active; positive”, the mutagenic call (Species/Cell Type: Human lymphocytes, Assay Type: Micronucleus test in vitro, chromosome aberrations, Assay Code: MN7+, Evaluation Type: Evaluation A (Pre-1980)) was “active; positive” and the mutagenic call [2] was “active; positive”. The mutagenic call (Species/Cell Type: Human lymphocytes, Assay Type: Sister-chromatid exchange (SCE) in vitro, Assay Code: SCL-, Evaluation Type: Evaluation A (Pre-1980)) was “inactive; negative”, the mutagenic call (Species/Cell Type: Human, Assay Type: Sister-chromatid exchange (SCE) in vitro, Assay Code: SC1+D, Dose Response: With dose response, Evaluation Type: Evaluation B (Post-1980)) was “active; positive” and the mutagenic call (Species/Cell Type: Human, Assay Type: Sister-chromatid exchange (SCE) in vitro, Assay Code: SC1-, Evaluation Type: Evaluation A (Pre-1980)) was “inactive; negative”. The mutagenic call (Species/Cell Type: Mammalian polychromatic erythrocytes, Assay Type: Micronucleus test, chromosome aberrations, Assay Code: MNT+, Evaluation Type: Evaluation B (Post-1980)) was “active; positive”, the mutagenic call (Species/Cell Type: Mammalian polychromatic erythrocytes, Assay Type: Micronucleus test, chromosome aberrations, Assay Code: MNTT, Evaluation Type: Evaluation A (Pre-1980)) was “no conclusion” and the mutagenic call [3] was “active; positive”. The mutagenic call (Species/Cell Type: Nonhuman, Assay Type: Chromosome aberrations in vitro, Assay Code: CY&+, Evaluation Type: Evaluation A (Pre-1980)) was “active; positive”, the call [4] was “no conclusion” and the mutagenic call [5] was “active; positive”. The mutagenic call [6] was “active; positive”, the mutagenic call [7] was “active; positive” and the mutagenic call (Species/Cell Type: Saccharomyces cerevisiae, Assay Type: Forward gene mutation, Assay Code: YEF+, Evaluation Type: Evaluation A (Pre-1980)) was “active; positive”. For the same compound, the mutagenic call (Species/Cell Type: Saccharomyces cerevisiae, Assay Type: Mitotic recombination or gene conversion, Assay Code: YEC+, Evaluation Type: Evaluation A (Pre-1980)) was “active; positive”, the mutagenic call (Species/Cell Type: Saccharomyces cerevisiae, Assay Type: Mitotic recombination or gene conversion, Assay Code: YEH+, Evaluation Type: Evaluation A (Pre-1980)) was “active; positive” and the mutagenic call (Species/Cell Type: Saccharomyces cerevisiae, Assay Type: Reverse gene mutation, Assay Code: YER+, Evaluation Type: Evaluation A (Pre-1980)) was “active; positive”. The mutagenic call (Species/Cell Type: Vicia faba, Assay Type: Chromosome aberrations, Assay Code: VIC+, Evaluation Type: Evaluation A (Pre-1980)) was “active; positive”.

In the case of `Nc1ccc(O)c2c1C(=O)c1ccccc1C2=O`, the mutagenic call (Species/Cell Type: Salmonella typhimurium (one or more of the five standard strains: TA98, TA100, TA1535, TA1537, and TA1538), Assay Type: Histidine reverse gene mutation, Ames assay, Assay Code: SAL+, Evaluation Type: Evaluation A (Pre-1980)) is reported as “active; positive”.

In the case of `COc1ccc(C(=O)/C(Br)=C\C(=O)O)cc1`, the mutagenic call (Species/Cell Type: Mammalian polychromatic erythrocytes, Assay Type: Micronucleus test, chromosome aberrations, Assay Code: MNT+, Evaluation Type: Evaluation A (Pre-1980)) is reported as “active; positive” and the call [8] is reported as “active; positive”.

With `O=C1c2ccccc2C(=O)N1CC1CO1` (stereo unspecified) the mutagenic call [1] was “active; positive”.

`CC(C)C(O)(C(=O)OCC1=CC[N@+]2([O-])CCCC12)[C@H](C)O` (stereo partly specified) was tested, and the mutagenic call (Species/Cell Type: Drosophila melanogaster, Assay Type: Sex-linked recessive lethal gene mutation, Assay Code: SRLT, Evaluation Type: Evaluation A (Pre-1980)) was “no conclusion”.

With `CC(=O)NNC(=O)c1ccncc1` the mutagenic call (Species/Cell Type: Salmonella typhimurium, Assay Type: Forward and reverse gene mutation, host-mediated assay, Assay Code: HMAT, Evaluation Type: Evaluation A (Pre-1980)) was “no conclusion”.

For `CC(C)C[C@H]1C(=O)N2CCC[C@H]2[C@]2(O)O[C@](NC(=O)[C@@H]3C=C4c5cccc6[nH]c(Br)c(c56)C[C@H]4N(C)C3)(C(C)C)C(=O)N12`, the mutagenic call [9] was “no conclusion”, the mutagenic call [10] was “no conclusion” and the mutagenic call (Species/Cell Type: Human, Sex: Male, Assay Type: Sperm morphology, Assay Code: SPH-, Evaluation Type: Evaluation A (Pre-1980)) was “inactive; negative”.

`CN(CC(C)(C)C)N=O` was tested, and the mutagenic call (Species/Cell Type: Salmonella typhimurium (one or more of the five standard strains: TA98, TA100, TA1535, TA1537, and TA1538), Assay Type: Histidine reverse gene mutation, Ames assay, Assay Code: SALT, Evaluation Type: Evaluation A (Pre-1980)) was “no conclusion”.

`Nc1ccccc1` was tested, and the mutagenic call (Species/Cell Type: Allium cepa, Assay Type: Chromosome aberrations, Assay Code: ALCT, Evaluation Type: Evaluation A (Pre-1980)) was “no conclusion”, the mutagenic call [11] was “inactive; negative” and the mutagenic call (Species/Cell Type: Escherichia coli polA (W3119 vs P3478), Assay Type: Rec-assay, DNA effects (bacterial DNA repair), Assay Code: RE1+, Evaluation Type: Evaluation A (Pre-1980)) was “active; positive”. The mutagenic call [12] was “active; positive”, the mutagenic call [2] was “active; positive” and the mutagenic call [13] was “active; positive”. The mutagenic call (Species/Cell Type: Mammalian polychromatic erythrocytes, Assay Type: Micronucleus test, chromosome aberrations, Assay Code: MNTT, Evaluation Type: Evaluation B (Post-1980)) was “no conclusion”, the mutagenic call (Species/Cell Type: Mouse (BALB/c-3T3) cells, Assay Type: Cell transformation, Assay Code: CTB+D, Dose Response: With dose response, Evaluation Type: Evaluation A (Pre-1980)) was “active; positive” and the mutagenic call [14] was “inactive; negative”. For the same compound, the call [8] was “active; positive”, the call [4] was “no conclusion” and the mutagenic call [5] was “active; positive”. For the same compound, the mutagenic call [7] was “active; positive”, the mutagenic call [15] was “inactive; negative” and the mutagenic call [16] was “inactive; negative”. The mutagenic call (Species/Cell Type: Syrian hamster embryo (SHE) cells, Assay Type: Cell transformation, clonal assay, Assay Code: CTC-, Evaluation Type: Evaluation A (Pre-1980)) was “inactive; negative”.

With `Cc1c(C)c2c(c(C)c1O)CCC(C)(CCCC(C)CCCC(C)CCCC(C)C)O2` (stereo unspecified) the mutagenic call [9] was “no conclusion” and the mutagenic call [10] was “no conclusion”.

With `O=Nc1c(O)c(S(=O)(=O)O)cc2cc(S(=O)(=O)O)ccc12` the mutagenic call (Species/Cell Type: Glycine max (soybean), Assay Type: Gene mutation, Assay Code: GLM-, Evaluation Type: Evaluation A (Pre-1980)) was “inactive; negative”.

In the case of `CC1=C(/C=C/C(C)=C/C=C/C(C)=C/CO)C(C)(C)CCC1`, the mutagenic call [14] is reported as “inactive; negative” and the mutagenic call (Species/Cell Type: Nonhuman, Assay Type: Sister-chromatid exchange (SCE) in vitro, Assay Code: SC2T, Evaluation Type: Evaluation B (Post-1980)) is reported as “no conclusion”.

With `NC(N)=S` the mutagenic call (Species/Cell Type: Allium cepa, Assay Type: Chromosome aberrations, Assay Code: ALC-, Evaluation Type: Evaluation A (Pre-1980)) was “inactive; negative”, the mutagenic call [11] was “inactive; negative” and the mutagenic call (Species/Cell Type: Escherichia coli polA (W3119 vs P3478), Assay Type: Rec-assay, DNA effects (bacterial DNA repair), Assay Code: RE1T, Evaluation Type: Evaluation A (Pre-1980)) was “no conclusion”. For the same compound, the mutagenic call [12] was “active; positive”, the mutagenic call (Species/Cell Type: Fischer rat embryo (SA7/RE) cells, Assay Type: Cell transformation, viral enhanced, Assay Code: CTA+, Evaluation Type: Evaluation A (Pre-1980)) was “active; positive” and the mutagenic call [14] was “inactive; negative”. The call (Species/Cell Type: Nonhuman, Assay Code: CCG+, Evaluation Type: Evaluation A (Pre-1980)) was “active; positive”, the mutagenic call (Species/Cell Type: Nonhuman, Assay Type: Sister-chromatid exchange (SCE) in vitro, Assay Code: SC2+, Evaluation Type: Evaluation B (Post-1980)) was “active; positive” and the mutagenic call [15] was “inactive; negative”. For the same compound, the mutagenic call [16] was “inactive; negative”, the mutagenic call (Species/Cell Type: Salmonella typhimurium, Assay Type: Forward and reverse gene mutation, host-mediated assay, Assay Code: HMA+, Evaluation Type: Evaluation A (Pre-1980)) was “active; positive” and the mutagenic call (Species/Cell Type: Syrian hamster embryo (SA7/SHE) cells, Assay Type: Cell transformation, viral enhanced, Assay Code: CT7-, Evaluation Type: Evaluation A (Pre-1980)) was “inactive; negative”. The mutagenic call (Species/Cell Type: Syrian hamster embryo (SHE) cells, Assay Type: Cell transformation, clonal assay, Assay Code: CTC+, Evaluation Type: Evaluation A (Pre-1980)) was “active; positive”.

`Nc1ncn([C@@H]2O[C@H](CO)[C@@H](O)[C@H]2O)c(=O)n1` was tested, and the mutagenic call [2] was “active; positive”, the mutagenic call [13] was “active; positive” and the mutagenic call [3] was “active; positive”. For the same compound, the call [8] was “active; positive” and the mutagenic call [6] was “active; positive”.
